Assay results from ChEMBL document CHEMBL1201862, “PubChem BioAssay data set” (2004).
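In this assay, cells in 96-well plates receive the compound at five concentrations for 48 hours. Endpoints are linearly interpolated between the surrounding concentrations. The concentration for 50% growth inhibition is given as GI50.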 Active and inactive are the calls of the source. No stated cut-off is given here; in the data, active = GI50 up to about 1.1 µM and inactive = higher.

Legend:
Test in all cases: NCI anticancer screen, dose series, 48 h
NCI/ADR-RES = test system: NCI/ADR-RES
MDA-MB-435 = test system: MDA-MB-435
MDA-MB-231 = test system: MDA-MB-231
DU-145 = test system: DU-145
MDA-N = test system: MDA-N
M19-MEL = test system: M19-MEL
KM-20L2 = test system: KM-20L2
SNB-78 = test system: SNB-78

Structure (SMILES) | GI50 (NCI/ADR-RES) | GI50 (MDA-MB-435) | GI50 (MDA-MB-231) | GI50 (DU-145) | GI50 (MDA-N) | GI50 (M19-MEL) | GI50 (KM-20L2) | GI50 (SNB-78)
COc1ccc(CCn2ccc(C)n2)c(OC)c1 | 90.2 µM (inactive) | > 100 µM (inactive) | > 100 µM (inactive) | > 100 µM (inactive) | > 100 µM (inactive) |  |  | 
CC/C=C(\C(=C/CC)[N+](=O)[O-])[N+](=O)[O-] | 20.7 µM (inactive) | 16.8 µM (inactive) | 21 µM (inactive) | 21.3 µM (inactive) | 22.8 µM (inactive) |  |  | 
CCCNC(=O)C(C)C1CCC2(C)C=CC(=O)C(C)=C2C1O (stereo not drawn) | > 100 µM (inactive) |  |  |  |  | > 100 µM (inactive) | > 100 µM (inactive) | 
Oc1cc(Cl)cc2cc(Br)cnc12 | 2.06 µM (inactive) | 4.65 µM (inactive) | 2.56 µM (inactive) | 5.14 µM (inactive) | 2.3 µM (inactive) |  |  | 
O=C(Nc1nc2c(=O)[nH]cnc2s1)c1ccccc1 | > 100 µM (inactive) | 88.5 µM (inactive) |  | 73.1 µM (inactive) |  |  |  | 
Cc1ccc(S(=O)(=O)N(c2ccccc2F)C2CCCCC2O)cc1 (stereo not drawn) | 42.4 µM (inactive) | 19.4 µM (inactive) | 77.6 µM (inactive) | 24.9 µM (inactive) | 19.9 µM (inactive) |  |  | 
O=C1OC(c2ccccc2Br)=N/C1=C/c1ccccc1 |  | 29.2 µM (inactive) | 40.7 µM (inactive) | > 100 µM (inactive) | 25.4 µM (inactive) |  |  | 
COc1cc([C@@H]2c3cc4c(cc3[C@@H](Nc3ccc(Cl)cc3C(=O)c3ccccc3Cl)[C@H]3COC(=O)[C@H]23)OCO4)cc(OC)c1OC | 0.173 µM (active) | 0.0661 µM (active) | 0.39 µM (active) | 0.314 µM (active) | 0.0873 µM (active) |  |  | 
CC1C2CC(C(C3C(=O)C4CC3C(C)(C)C4C)C2=O)C1(C)C (stereo not drawn) |  | > 100 µM (inactive) | > 100 µM (inactive) | > 100 µM (inactive) | > 100 µM (inactive) |  |  | 
CC1NC(=O)C2=C1C(N)=NC(=O)C2 (stereo not drawn) |  |  |  |  |  | > 100 µM (inactive) | > 100 µM (inactive) | > 100 µM (inactive)
COC(=O)C1(F)C(=O)NC(=O)NC1O (stereo not drawn) | > 100 µM (inactive) | > 100 µM (inactive) | > 100 µM (inactive) | > 100 µM (inactive) | > 100 µM (inactive) |  |  | 
COc1ccc(C2c3cc4c(cc3OC(N3CCOCC3)C2C)OCO4)cc1OC (stereo not drawn) | 3.61 µM (inactive) | 2.04 µM (inactive) | 16.2 µM (inactive) | 9.42 µM (inactive) | 1.86 µM (inactive) |  |  | 
CC/C=C/C[C@H](O[Si](C)(C)C(C)(C)C)[C@H]1C[C@H]2O[C@H]([C@@H](O)C#C[Si](C)(C)C)C[C@H]2O1 | 13.3 µM (inactive) | 12.3 µM (inactive) | 14.9 µM (inactive) | 14.7 µM (inactive) | 12.2 µM (inactive) |  |  | 
CC1(C)C2CCC1(C)[C@H](O)[C@H]2Nc1cc(C(F)(F)F)cc(C(F)(F)F)c1 (stereo partly drawn) | 3.07 µM (inactive) | 3.42 µM (inactive) | 4.53 µM (inactive) | 3.66 µM (inactive) |  |  |  | 
N#Cc1ccccc1C(Cl)(Cl)c1cnccn1 |  |  |  |  |  | 54.1 µM (inactive) |  | 46.3 µM (inactive)
CC1CCC(=O)C(C(O)CC2CC(=O)N(c3ccccc3)C(=O)C2)C1 (stereo not drawn) |  |  |  |  |  | > 100 µM (inactive) | > 100 µM (inactive) | > 100 µM (inactive)
CC(CO)(CO)N1C(=O)C2C3C=CC(C3)C2C1=O (stereo not drawn) | > 100 µM (inactive) | > 100 µM (inactive) | > 100 µM (inactive) | > 100 µM (inactive) | > 100 µM (inactive) |  |  | 
CCn1c(SCC(=O)N/N=C/c2ccccc2)nc2ccccc2c1=O | 4.05 µM (inactive) | 2.11 µM (inactive) | 14.3 µM (inactive) | 48.2 µM (inactive) | 2.54 µM (inactive) |  |  | 
COc1ccc2cc(CN3CCC(C4CCN(Cc5ccc6cc(OC)ccc6c5)CC4)CC3)ccc2c1 | 6.82 µM (inactive) | 1.69 µM (inactive) | 2.52 µM (inactive) | 6.21 µM (inactive) | 2.04 µM (inactive) |  |  | 
O=C(NS(=O)(=O)OCC(Cl)(Cl)Cl)SCCC(F)(F)C(F)(F)C(F)(F)C(F)(F)C(F)(F)C(F)(F)F | 20.2 µM (inactive) | 23.8 µM (inactive) | 25.4 µM (inactive) | 46.9 µM (inactive) |  |  |  | 
COc1cccc(CCn2c(N)c(C#N)c3ccc([N+](=O)[O-])cc3c2=O)c1 | > 46.5 µM (inactive) | 0.22 µM (active) | > 46.5 µM (inactive) | > 46.5 µM (inactive) | 0.256 µM (active) |  |  | 
CC1=CCC2CC1C(C(=O)c1c[nH]c3ccccc13)=NC2(C)C (stereo not drawn) | 59.3 µM (inactive) | 47.8 µM (inactive) | 51.9 µM (inactive) | > 100 µM (inactive) | > 10 µM (inactive) |  |  | 
CCCc1[nH]c2ccccc2c1-c1c(CCC)[nH]c2ccccc12 | 10.1 µM (inactive) | 11.9 µM (inactive) | 15.3 µM (inactive) | 11.3 µM (inactive) | 7.96 µM (inactive) |  |  | 
O=c1cnn(C/C=C\CO)c(=O)[nH]1 | > 100 µM (inactive) | > 100 µM (inactive) | > 100 µM (inactive) | > 100 µM (inactive) | > 100 µM (inactive) |  |  | 
C[C@]12CC[C@H](OC(=O)Cc3ccc(N(CCCl)CCCl)cc3)CC1=CC[C@@H]1[C@@H]2CC[C@]2(C)C(=O)CC[C@@H]12 | > 100 µM (inactive) | > 100 µM (inactive) | > 100 µM (inactive) | > 100 µM (inactive) | > 100 µM (inactive) |  |  | 

Structure (SMILES) | GI50 (NCI/ADR-RES) | GI50 (MDA-MB-435) | GI50 (MDA-MB-231) | GI50 (DU-145) | GI50 (MDA-N) | GI50 (M19-MEL) | GI50 (KM-20L2) | GI50 (SNB-78)
Oc1ccc(-c2nc3ccc4ccccc4c3c3c2CCCC3)c(O)c1 | > 100 µM (inactive) | 16.9 µM (inactive) | 12.9 µM (inactive) | 35.3 µM (inactive) | 17.2 µM (inactive) |  |  | 
O=C(O)CNC(=O)c1cccc2c(=O)c3ccccc3[nH]c12 | > 100 µM (inactive) | > 100 µM (inactive) | > 100 µM (inactive) | > 100 µM (inactive) | > 100 µM (inactive) |  |  | 
CC(=O)n1nnc2ccc([N+](=O)[O-])cc21 |  |  |  |  |  | > 100 µM (inactive) | > 100 µM (inactive) | > 100 µM (inactive)
O=C(/C=C/c1ccccc1)Oc1cccc(O)c1 | 42.8 µM (inactive) | > 100 µM (inactive) | 47.9 µM (inactive) | 80.7 µM (inactive) | 57.8 µM (inactive) |  |  | 
CCC(Sc1cc(Cl)c(C)cc1S(=O)(=O)Nc1nc(N)nc(N(C)C)n1)C(=O)O (stereo not drawn) | > 10 µM (inactive) |  |  | > 10 µM (inactive) | > 10 µM (inactive) |  |  | 
COc1ccc(/C=c2/s/c(=C(\C#N)c3nc4ccccc4[nH]3)n(-c3ccccc3)c2=O)cc1 | 5.06 µM (inactive) | 31.8 µM (inactive) | 18.7 µM (inactive) | 94.6 µM (inactive) | 30.8 µM (inactive) | > 100 µM (inactive) | > 100 µM (inactive) | 
NC(=O)c1ccccc1NC(=O)C(=O)Nc1n[nH]c(N)n1 |  |  |  |  |  | > 100 µM (inactive) | > 100 µM (inactive) | > 100 µM (inactive)
C=C1N(C)c2ccc(S(=O)(=O)c3ccc4c(c3)C(C)(C)C(=C)N4C)cc2C1(C)C | 59 µM (inactive) | 30.8 µM (inactive) | 33.6 µM (inactive) | 60 µM (inactive) | 39 µM (inactive) |  |  | 
COc1ccc2c(c1)c(=O)c1ccccc1n2/C=C/C(=O)O |  |  |  |  |  |  | 26.7 µM (inactive) | > 100 µM (inactive)
NC(=O)c1oc([N+](=O)[O-])c(-c2ccccc2)c1-c1ccccc1 | 19.4 µM (inactive) | 14.9 µM (inactive) | 13.5 µM (inactive) | 26.9 µM (inactive) |  |  |  | 
CCOC(=O)C(SCCO)C(C(=O)OCC)n1ccc(=O)[nH]c1=O (stereo not drawn) | 25.4 µM (inactive) | 22.4 µM (inactive) | 35.8 µM (inactive) | > 100 µM (inactive) | 34.8 µM (inactive) |  |  | 
CCC1C(=O)C[C@H]2[C@@H]3C(O)CC4=CC(=O)CC[C@]4(C)[C@H]3CC[C@]12C (stereo partly drawn) | > 50 µM (inactive) | > 50 µM (inactive) | > 50 µM (inactive) | > 50 µM (inactive) |  |  |  | 
C=C(Cl)C(Br)(CCl)CCC(Br)C(C)(C)Cl (stereo not drawn) | 3.17 µM (inactive) | 3.57 µM (inactive) | 1.64 µM (inactive) | 13.7 µM (inactive) | 3.49 µM (inactive) |  |  | 
C[C@]12CCC(=O)C=C1CC[C@@H]1C2CC[C@]2(C)NC(=O)C(C#N)CC12 (stereo partly drawn) |  |  |  |  |  | > 100 µM (inactive) | 53.6 µM (inactive) | > 100 µM (inactive)
C/C(CC(O)(C(F)(F)F)C(F)(F)F)=N/Nc1ccc([N+](=O)[O-])cc1[N+](=O)[O-] | 2.85 µM (inactive) | 3.15 µM (inactive) | 2.28 µM (inactive) | 2.29 µM (inactive) | 4.46 µM (inactive) |  |  | 
COc1ccc2nc3c(C(=O)NCCN(C)C)cccc3cc2c1 | 1.41 µM (inactive) |  |  |  |  |  | 0.562 µM (active) | 3.76 µM (inactive)
Nc1nc(Cl)cc(NCC2(CO)CCC(OCc3ccccc3)C2)n1 (stereo not drawn) | 3.81 µM (inactive) | 14.8 µM (inactive) | 7.45 µM (inactive) | 27.7 µM (inactive) | 16.8 µM (inactive) |  |  | 
Cc1nc2ccccc2cc1C[N+]12CN3CN(CN(C3)C1)C2 | 22.4 µM (inactive) | 22.2 µM (inactive) | 16.4 µM (inactive) | 26.2 µM (inactive) | 21.8 µM (inactive) |  |  | 
CCCCCCOP(=O)(OCCCCCC)C(NC(=O)OCC)(C(F)(F)F)C(F)(F)F | 28.8 µM (inactive) | 36.6 µM (inactive) | 24.3 µM (inactive) | 93.1 µM (inactive) | 36 µM (inactive) |  |  | 
O=C(NCCNCCO)N/N=C/c1cccc([N+](=O)[O-])c1 |  |  |  |  |  | > 100 µM (inactive) | > 100 µM (inactive) | > 100 µM (inactive)
C=C(C)COc1ccc2c(c1)CCC1C2CCC2(C)C(=O)/C(=N/O)CC12 (stereo not drawn) | 4.27 µM (inactive) | 2.27 µM (inactive) | 1.66 µM (inactive) | 2.12 µM (inactive) | 3.47 µM (inactive) |  |  | 
O=C1NC(=O)C(CC2CCCCCCCCCCC2=O)C(=O)N1 (stereo not drawn) | > 100 µM (inactive) | > 100 µM (inactive) | > 100 µM (inactive) | > 100 µM (inactive) | > 100 µM (inactive) |  |  | 
COc1ccc(-c2oc3cc(-c4cc5oc(-c6ccc(OC)cc6)c(-c6ccc(OC)cc6)c5cc4OC)c(OC)cc3c2-c2ccc(OC)cc2)cc1 | > 100 µM (inactive) | > 100 µM (inactive) | > 100 µM (inactive) | > 100 µM (inactive) | > 100 µM (inactive) |  |  | 
CN(C)CCC1(C2=CCCC2)CC/C(=C\c2ccccc2)C1=O (stereo not drawn) |  |  |  |  |  | 15.2 µM (inactive) | 13.1 µM (inactive) | 19.7 µM (inactive)
